Measurements reported in patent publication US20240199881A1, “METAL COMPLEX DYES FOR INKJET PRINTING” (Videojet Technologies Inc., priority 2021, published 2024).

Experiment: Saturated solubility testing in butanone and ethanol
Assay type: physicochemical
Settings: for Solubility (w/w) in butanone: solvent butanone; for Solubility (w/w) in ethanol: solvent ethanol

Solubility (w/w) in butanone | Solubility (w/w) in ethanol | SMILES
6% (w/w) | <1% (w/w) | O=[N+]([O-])c1ccc2c(c1)/N=N/c1c(ccc3ccccc13)[O][Fe]1([O]2)[O]c2ccc([N+](=O)[O-])cc2/N=N/c2c(ccc3ccccc23)[O]1 [Example 59]
≥20% (w/w) | <2% (w/w) | CCC(C)(C)c1cc2c(c([N+](=O)[O-])c1)[O][Fe]1([O]c3ccc4ccccc4c3/N=N/2)[O]c2ccc3ccccc3c2/N=N/c2cc(C(C)(C)CC)cc([N+](=O)[O-])c2[O]1 [Example 60]

SMILES | Solubility (w/w) in butanone | Solubility (w/w) in ethanol
O=[N+]([O-])c1ccc2c(c1)[O][Fe]1([O]c3cc([N+](=O)[O-])ccc3/N=N/c3c(ccc4ccccc34)[O]1)[O]c1ccc3ccccc3c1/N=N/2 [Example 29] | 50% (w/w) | <1% (w/w)
